Entries after “also recorded” stand apart in the source; their conditions may differ. Where a SMILES comes first, the peptide text is derived from it. Bridges are numbered along the chain shown (N, C = ends).
What was measured:
[1] = Confocal microscopy of GUVs doped with Und-NBD-lipid II; settings: GUVs 0.4 mol% Und-NBD-LII in DOPC, 1 μM antibiotic
Method: GUVs were prepared by electroformation using in-house build Teflon cells with two titanium wires as electrodes. About 1 μl of 0.5 mM DOPC with 0.4 mol% NBD–lipid II in 2:1 CHCl3/MeOH was brushed on both electrodes and thoroughly dried under vacuum. Next, the cell was filled with 350 μl 300 mM sucrose, and GUVs were formed by applying an oscillating voltage (sine wave, 2 V, 10 Hz) for 90 min and released from the electrodes (square wave, 2 V, 2 Hz). Microscopy slides were precoated using a 1 mg ml^−1 BSA solution. Slides were filled with 300 μl 300 mM glucose solution, followed by addition of the antibiotic and finally 30–50 μl GUV solution. The GUVs were imaged using a Zeiss LSM 880 confocal microscope with a ×63/1.2NA glycerol objective lens. Green fluorescence (530–545 nm) was detected after excitation with a 488 nm laser.

[2] = system: S. simulans 22; assay: MIC assays under standard conditions; type: cell-based, Staphylococcus simulans; settings: Supplementary Table 1; cation-adjusted MHB, 37 °C, 16–20 h
Summary of the method: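 Broth microdilution in cation-adjusted MHB, inoculum from OD600 0.5 TSB culture diluted 100-fold, 37 °C with shaking. Streptococci: 5% lysed horse blood, 5% CO2, MIC read visually at 20–24 h; S. simulans read at 16–20 h.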

[3] = Isothermal titration calorimetry with lipid II LUVs; type: binding; settings: mutant vs plectasin
Method: About 200 nm large unilamellar vesicles (LUVs) were prepared from 2 mol% lipid II in DOPC by the extrusion technique. ITC measurements were conducted on a low-volume Affinity ITC (TA instruments). All measurements were conducted at 37 °C. Samples were degassed for 10 min before the ITC experiments. The cell was filled with plectasin (in 50 mM HEPES, 150 mM NaCl at pH = 7.2) and titrated with LUVs in the same buffer under constant stirring at 125 r.p.m. The data were analysed using the Nano Analyze software version 3.11.0 (TA Instruments). After baseline correction, the integrated peaks were fitted using an independent binding model. Each measurement was acquired in duplicate.

[4] = HS-AFM oligomerization on supported lipid bilayers doped with lipid II; settings: DOPC/DOPG (1:1), 1% lipid II, 1 mM Ca^2+, up to 1 µM, n = 3
Method: HS-AFM imaging was performed on a supported lipid bilayer deposited on mica using an amplitude modulation tapping mode HS-AFM from RIBM (Ando type)[11]. The lipid compositions are as stated in the experimental conditions of the corresponding results. Short cantilevers (∼7 μm) with a nominal spring constant of 0.15 N m^−1 were used (USC-F1.2-k0.15, NanoWorld) for all experiments. A minimal imaging force was applied by using a small set-point amplitude, typically 80% of the free amplitude (for 1–2 nm of free amplitude). […] Imaging was started on the lipid bilayer surface in recording buffer. […] All reported experiments were repeated for at least three times for each condition. Image analysis was done using Igor Pro version 6.22 (Wavemetrics) with RIBM script and ImageJ version 1.501 with minimal image corrections (tilt, drift and background corrections). The time stamps on HS-AFM videos are relative to plectasin addition into the liquid chamber. Image acquisition rate varied from 0.5 frames per second to 2 frames per second (see the figure/video legends).

Molecule: teicoplanin
- lipid II cluster/domain formation on GUVs [1]: caused the formation of lipid II domains in liposomes

Molecule: ramoplanin
- lipid II cluster/domain formation on GUVs [1]: caused the formation of lipid II domains in liposomes

Molecule: CC[C@H](C)[C@@H]1NC(=O)[C@H](CO)NC(=O)[C@H](CCCCN)NC(=O)[C@@H]2CSSC[C@@H](C(=O)N[C@@H](Cc3ccc(O)cc3)C(=O)O)NC(=O)[C@H](CCCCN)NC(=O)[C@@H]3CSSC[C@H](NC(=O)[C@H](CCC(N)=O)NC(=O)[C@H](CCSC)NC(=O)[C@H](CC(=O)O)NC(=O)[C@H](CC(=O)O)NC(=O)[C@H](CCC(=O)O)NC(=O)[C@H](CC(=O)O)NC(=O)[C@H](Cc4c[nH]c5ccccc45)NC(=O)[C@@H]4CCCN4C(=O)CNC(=O)[C@H](CC(N)=O)NC(=O)[C@@H](NC(=O)CNC(=O)[C@H](Cc4ccccc4)NC(=O)CN)CSSC[C@H](NC(=O)[C@H](Cc4ccc(O)cc4)NC(=O)CNC(=O)CNC(=O)[C@H](CCCCN)NC(=O)[C@H](Cc4ccc(O)cc4)NC(=O)CNC(=O)[C@H](CCCCN)NC1=O)C(=O)N[C@@H](C)C(=O)N[C@@H](CCCCN)C(=O)NCC(=O)NCC(=O)N[C@@H](Cc1ccccc1)C(=O)N[C@@H](C(C)C)C(=O)N3)C(=O)N[C@@H](Cc1c[nH]cn1)C(=O)N[C@@H](CC(N)=O)C(=O)N[C@@H](C)C(=O)N2 [H18A] (H-GFGCNGPWDEDDMQCHNACKSIKGYKGGYCAKGGFVCKCY-OH; disulfide 4-30, 15-37, 19-39 (inferred); N-terminus and C-terminus assumed)
- Minimum inhibitory concentration, S. simulans [2]: > 50 µg/mL
- loss in lipid II binding affinity (ITC) [3]: > 10 fold

Molecule: CC[C@H](C)[C@@H]1NC(=O)[C@H](CO)NC(=O)[C@H](CCCCN)NC(=O)[C@@H]2CSSC[C@@H](C(=O)N[C@@H](Cc3ccc(O)cc3)C(=O)O)NC(=O)[C@H](CCCCN)NC(=O)[C@@H]3CSSC[C@H](NC(=O)[C@H](CCC(N)=O)NC(=O)[C@H](CCSC)NC(=O)[C@H](CC(=O)O)NC(=O)[C@H](CC(=O)O)NC(=O)[C@H](CCC(=O)O)NC(=O)[C@H](CC(=O)O)NC(=O)[C@H](Cc4c[nH]c5ccccc45)NC(=O)[C@@H]4CCCN4C(=O)CNC(=O)[C@H](CC(N)=O)NC(=O)[C@@H](NC(=O)CNC(=O)[C@H](Cc4ccccc4)NC(=O)CN)CSSC[C@H](NC(=O)[C@H](Cc4ccc(O)cc4)NC(=O)CNC(=O)CNC(=O)[C@H](CCCCN)NC(=O)[C@H](Cc4ccc(O)cc4)NC(=O)CNC(=O)[C@H](CCCCN)NC1=O)C(=O)N[C@@H](C)C(=O)N[C@@H](CCCCN)C(=O)NCC(=O)NCC(=O)N[C@@H](Cc1ccccc1)C(=O)N[C@@H](C(C)C)C(=O)N3)C(=O)N[C@@H](C)C(=O)N[C@@H](CC(N)=O)C(=O)N[C@@H](Cc1c[nH]cn1)C(=O)N2 [H16A] (H-GFGCNGPWDEDDMQCANHCKSIKGYKGGYCAKGGFVCKCY-OH; disulfide 4-30, 15-37, 19-39 (inferred); N-terminus and C-terminus assumed)
- Minimum inhibitory concentration, S. simulans [2]: > 50 µg/mL
- loss in lipid II binding affinity (ITC) [3]: > 10 fold
- oligomerization in HS-AFM (in words) [4]: oligomerization was not observed; also recorded: No plectasin oligomerization is observed

Molecule: copsin
- lipid II cluster/domain formation on GUVs [1]: caused the formation of lipid II domains in liposomes

Source: article PMC11222147, “Host defence peptide plectasin targets bacterial cell wall precursor lipid II by a calcium-sensitive supramolecular mechanism” (Nature Microbiology, 2024)
